# Reference: ChEMBL document CHEMBL1154206, “Bioactive iridoid glucosides from the fruit of Gardenia jasminoides” (J Nat Prod, 2009)
# Active and inactive are the calls of the source. The rule behind the calls is not given here.
# Test system: Drosophila
# Test: Short term memory enhancement in human Abeta42 transgenic Drosophila alzheimers disease model dosed for 6 days by pavlovian olfactory learning assay after 8 days
# Assay type: functional, organism-based
row,Structure (SMILES),Activity
1,COc1cc(/C=C/C(=O)OC[C@H]2O[C@@H](OC[C@H]3C(=O)OC[C@@H]4C(CO)=CC[C@@H]43)[C@H](O)[C@@H](O)[C@@H]2O)cc(OC)c1O,Active
2,COc1cc(/C=C/C(=O)OC[C@H]2O[C@@H](OCC3=CC[C@H]4[C@@H]3COC(=O)[C@@H]4CO)[C@H](O)[C@@H](O)[C@@H]2O)cc(OC)c1O,Active
3,COC(=O)C1=CO[C@@H](O[C@@H]2O[C@H](COC(=O)/C=C/c3ccc(O)cc3)[C@@H](O)[C@H](O)[C@H]2O)[C@@H]2C(CO)=CC[C@H]12,Active
4,COC(=O)C1=CO[C@@H](O[C@@H]2O[C@H](CO)[C@@H](O)[C@H](O)[C@H]2O)[C@@H]2C(CO)=CC[C@H]12,Active
5,COC(=O)C1=CO[C@@H](O[C@@H]2O[C@H](CO)[C@@H](O)[C@H](O)[C@H]2O)[C@@H]2C(COC(C)=O)=CC[C@H]12,Active
6,COC(=O)C1=CO[C@@H](O[C@@H]2O[C@H](COC(=O)/C=C/c3cc(OC)c(O)c(OC)c3)[C@@H](O)[C@H](O)[C@H]2O)[C@@H]2C(CO)=CC[C@H]12,Active
7,COC(=O)C1=CO[C@@H](O[C@@H]2O[C@H](COC(C)=O)[C@@H](O)[C@H](O)[C@H]2O)[C@@H]2C(CO)=CC[C@H]12,Active
8,COC(=O)C1=CO[C@@H](O[C@@H]2O[C@H](CO)[C@@H](O)[C@H](O)[C@H]2O)[C@@H]2C(COC(=O)CCC(=O)O)=CC[C@H]12,Active
